The source of these data is publication doi:10.1101/2023.04.01.534865v1 (biorxiv, 2023).

This assay addresses T1, GST-OSBP(377-807) (Homo sapiens, UniProt P22059).
T1 sequence (P22059 377-807): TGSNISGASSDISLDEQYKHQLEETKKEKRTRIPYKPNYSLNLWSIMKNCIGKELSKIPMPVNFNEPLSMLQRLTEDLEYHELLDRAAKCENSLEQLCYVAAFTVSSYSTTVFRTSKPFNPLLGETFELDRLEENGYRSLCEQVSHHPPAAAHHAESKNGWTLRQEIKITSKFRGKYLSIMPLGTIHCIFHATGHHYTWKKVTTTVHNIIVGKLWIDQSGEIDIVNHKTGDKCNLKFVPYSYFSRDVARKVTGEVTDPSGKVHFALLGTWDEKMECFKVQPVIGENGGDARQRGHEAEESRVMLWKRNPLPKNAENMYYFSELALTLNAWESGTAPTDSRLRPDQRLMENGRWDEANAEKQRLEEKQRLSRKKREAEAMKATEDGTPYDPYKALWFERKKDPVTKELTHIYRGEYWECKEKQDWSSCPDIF
Description: competitive fluorescence polarization. It is filed as binding.

Compound `C[C@H](CCC(=O)NCCCOCCCCOCCCNC(=O)OC(C)(C)C)[C@H]1CC[C@H]2[C@@H]3CC=C4C[C@@H](O)CC[C@]4(C)[C@H]3CC[C@]12C` [C3_Boc, oxybipin-2] had an IC50 of 74 nM.

As to `C[C@H](CCC(=O)NCCCOCCCCOCCCNC(=O)CC12CC3CC(CC(C3)C1)C2)[C@H]1CC[C@H]2[C@@H]3CC=C4C[C@@H](O)CC[C@]4(C)[C@H]3CC[C@]12C` [C3_HyT, oxybipin-1], the IC50 stood at 142 nM.

A word on the IC50: it is the point on the concentration scale where inhibition reaches its midpoint. Read a high IC50 as a need for much substance.
